Test results as given in patent US5571836A, “Viral attachment inhibitors” (priority 1995, dated 1996).
Where a name gives a salt, the structure may show the parent alone.

How the values were obtained:
[1] = system: influenza virus USSR/90/77; test: Fetuin binding inhibition assay, influenza virus USSR/90/77; details: for A^i (absorbance): 492 nm
[2] = system: influenza virus Chile/1/83; test: Fetuin binding inhibition assay, influenza virus Chile/1/83; details: for A^i (absorbance): 492 nm
[3] = system: influenza virus Taiwan/1/86; test: Fetuin binding inhibition assay, influenza virus Taiwan/1/86; details: for A^i (absorbance): 492 nm
influenza virus X-31 = test: Fetuin binding inhibition assay, influenza virus X-31; details: for A^i (absorbance): 492 nm
[4] = system: influenza virus England/321/77; test: Fetuin binding inhibition assay, influenza virus England/321/77; details: for A^i (absorbance): 492 nm
[5] = system: influenza virus USSR/2/85; test: Fetuin binding inhibition assay, influenza virus USSR/2/85; details: for A^i (absorbance): 492 nm
[6] = system: influenza virus USSR/3/85; test: Fetuin binding inhibition assay, influenza virus USSR/3/85; details: for A^i (absorbance): 492 nm
[7] = system: influenza virus B/Hong Kong/8/73; test: Fetuin binding inhibition assay, influenza virus B/Hong Kong/8/73; details: for A^i (absorbance): 492 nm
[8] = system: influenza virus B/Singapore/222/79; test: Fetuin binding inhibition assay, influenza virus B/Singapore/222/79; details: for A^i (absorbance): 492 nm
[9] = system: influenza virus B/USSR/100/83; test: Fetuin binding inhibition assay, influenza virus B/USSR/100/83; details: for A^i (absorbance): 492 nm
[10] = system: influenza virus Port Chalmers/1/73; test: Fetuin binding inhibition assay, influenza virus Port Chalmers/1/73; details: for A^i (absorbance): 492 nm
[11] = system: influenza virus Victoria/3/75; test: Fetuin binding inhibition assay, influenza virus Victoria/3/75; details: for A^i (absorbance): 492 nm
[12] = system: influenza virus Texas/1/77; test: Fetuin binding inhibition assay, influenza virus Texas/1/77; details: for A^i (absorbance): 492 nm
[13] = system: influenza virus Philippines/2/82; test: Fetuin binding inhibition assay, influenza virus Philippines/2/82; details: for A^i (absorbance): 492 nm
[14] = assay type: physicochemical; details: control solutions without enzyme
Method: Compound (IV) was incubated at 37° C. with Vibrio cholerae neuraminidase (450 U/ml) in 0.1M acetate buffer, pH 5.6, containing 0.9% NaCi and 0.1% CaCl2. Neuraminidase cleavage was determined on aliquots taken at intervals by TLC analysis (Merck silica gel plates in propanol/ethanol/25% aqueous ammonia, 2:2:1). Spots were developed by charring the plates with 3% H3 PO4 at 150° C. and quantitated densitometrically. The results are depicted in The FIGURE (v).

influenza viruses = test: Fetuin binding inhibition assay, influenza virus strains overall

CC(=S)NC1C(O)CC(OCc2ccccc2)(C(=O)O)OC1C(O)C(O)CO [IV, benzyl 3,5-dideoxy5-thioacetamido-α-D-glycero-D-galacto-nonulopyranosidonicacid (sodium salt)]
-lgKd(i) ([1]; 1.28 mM sialoside): 3.2
A^i (absorbance) ([1]; 1.28 mM sialoside): 0.41
-lgKd(i) ([1]; 2.56 mM sialoside): 3.2
A^i (absorbance) ([1]; 2.56 mM sialoside): 0.23
-lgKd(i) ([1]; .08 mM sialoside): 3.1
A^i (absorbance) ([1]; .08 mM sialoside): 0.94
-lgKd(i) ([1]; .16 mM sialoside): 3.2
A^i (absorbance) ([1]; .16 mM sialoside): 0.84
-lgKd(i) ([1]; .32 mM sialoside): 3.2
A^i (absorbance) ([1]; .32 mM sialoside): 0.73
-lgKd(i) ([1]; .64 mM sialoside): 3.2
A^i (absorbance) ([1]; .64 mM sialoside): 0.6
-lgKd ± SD ([1]; mean over concentrations): 3.1 ± 0.09
-lgKd(i) ([2]; 1.28 mM sialoside): 3.6
A^i (absorbance) ([2]; 1.28 mM sialoside): 0.36
-lgKd(i) ([2]; 2.56 mM sialoside): 3.5
A^i (absorbance) ([2]; 2.56 mM sialoside): 0.25
-lgKd(i) ([2]; .08 mM sialoside): 3.5
A^i (absorbance) ([2]; .08 mM sialoside): 1.27
-lgKd(i) ([2]; .16 mM sialoside): 3.5
A^i (absorbance) ([2]; .16 mM sialoside): 1.14
-lgKd(i) ([2]; .32 mM sialoside): 3.5
A^i (absorbance) ([2]; .32 mM sialoside): 0.89
-lgKd(i) ([2]; .64 mM sialoside): 3.5
A^i (absorbance) ([2]; .64 mM sialoside): 0.63
-lgKd ± SD ([2]; mean over concentrations): 3.5 ± 0.04
-lgKd(i) ([3]; 1.28 mM sialoside): 3.2
A^i (absorbance) ([3]; 1.28 mM sialoside): 0.33
-lgKd(i) ([3]; 2.56 mM sialoside): 3.2
A^i (absorbance) ([3]; 2.56 mM sialoside): 0.21
-lgKd(i) ([3]; .08 mM sialoside): 3.3
A^i (absorbance) ([3]; .08 mM sialoside): 0.68
-lgKd(i) ([3]; .16 mM sialoside): 3.3
A^i (absorbance) ([3]; .16 mM sialoside): 0.62
-lgKd(i) ([3]; .32 mM sialoside): 3.2
A^i (absorbance) ([3]; .32 mM sialoside): 0.55
-lgKd(i) ([3]; .64 mM sialoside): 3.1
A^i (absorbance) ([3]; .64 mM sialoside): 0.47
-lgKd ± SD ([3]; mean over concentrations): 3.2 ± 0.08
-lgKd(i) (influenza virus X-31; 1.28 mM sialoside): 3.3
A^i (absorbance) (influenza virus X-31; 1.28 mM sialoside): 0.34
-lgKd(i) (influenza virus X-31; 2.56 mM sialoside): 3.2
A^i (absorbance) (influenza virus X-31; 2.56 mM sialoside): 0.24
-lgKd(i) (influenza virus X-31; .08 mM sialoside): 3.2
A^i (absorbance) (influenza virus X-31; .08 mM sialoside): 0.86
-lgKd(i) (influenza virus X-31; .16 mM sialoside): 3.4
A^i (absorbance) (influenza virus X-31; .16 mM sialoside): 0.72
-lgKd(i) (influenza virus X-31; .32 mM sialoside): 3.3
A^i (absorbance) (influenza virus X-31; .32 mM sialoside): 0.65
-lgKd(i) (influenza virus X-31; .64 mM sialoside): 3.3
A^i (absorbance) (influenza virus X-31; .64 mM sialoside): 0.51
-lgKd ± SD (influenza virus X-31; mean over concentrations): 3.3 ± 0.08
-lgKd(i) ([4]; 1.28 mM sialoside): 3.7
A^i (absorbance) ([4]; 1.28 mM sialoside): 0.21
-lgKd(i) ([4]; 2.56 mM sialoside): 3.5
A^i (absorbance) ([4]; 2.56 mM sialoside): 0.16
-lgKd(i) ([4]; .08 mM sialoside): 3.4
A^i (absorbance) ([4]; .08 mM sialoside): 0.98
-lgKd(i) ([4]; .16 mM sialoside): 3.7
A^i (absorbance) ([4]; .16 mM sialoside): 0.73
-lgKd(i) ([4]; .32 mM sialoside): 3.7
A^i (absorbance) ([4]; .32 mM sialoside): 0.56
-lgKd(i) ([4]; .64 mM sialoside): 3.7
A^i (absorbance) ([4]; .64 mM sialoside): 0.37
-lgKd ± SD ([4]; mean over concentrations): 3.6 ± 0.13
-lgKd(i) ([5]; 1.28 mM sialoside): 2.6
A^i (absorbance) ([5]; 1.28 mM sialoside): 0.23
-lgKd(i) ([5]; 2.56 mM sialoside): 2.5
A^i (absorbance) ([5]; 2.56 mM sialoside): 0.21
-lgKd(i) ([5]; .64 mM sialoside): 2.6
A^i (absorbance) ([5]; .64 mM sialoside): 0.28
-lgKd ± SD ([5]; mean over concentrations): 2.6 ± 0.06
-lgKd(i) ([6]; 1.28 mM sialoside): 3.6
A^i (absorbance) ([6]; 1.28 mM sialoside): 0.32
-lgKd(i) ([6]; 2.56 mM sialoside): 3.8
A^i (absorbance) ([6]; 2.56 mM sialoside): 0.12
-lgKd(i) ([6]; .08 mM sialoside): 3.8
A^i (absorbance) ([6]; .08 mM sialoside): 1.05
-lgKd(i) ([6]; .16 mM sialoside): 3.8
A^i (absorbance) ([6]; .16 mM sialoside): 0.81
-lgKd(i) ([6]; .32 mM sialoside): 3.8
A^i (absorbance) ([6]; .32 mM sialoside): 0.62
-lgKd(i) ([6]; .64 mM sialoside): 3.7
A^i (absorbance) ([6]; .64 mM sialoside): 0.43
-lgKd ± SD ([6]; mean over concentrations): 3.8 ± 0.08
-lgKd(i) ([7]; 1.28 mM sialoside): 2.6
A^i (absorbance) ([7]; 1.28 mM sialoside): 0.46
-lgKd(i) ([7]; 2.56 mM sialoside): 2.7
A^i (absorbance) ([7]; 2.56 mM sialoside): 0.32
-lgKd(i) ([7]; .64 mM sialoside): 2.5
A^i (absorbance) ([7]; .64 mM sialoside): 0.54
-lgKd ± SD ([7]; mean over concentrations): 2.6 ± 0.1
-lgKd(i) ([8]; 1.28 mM sialoside): 3.6
A^i (absorbance) ([8]; 1.28 mM sialoside): 0.18
-lgKd(i) ([8]; 2.56 mM sialoside): 3.7
A^i (absorbance) ([8]; 2.56 mM sialoside): 0.09
-lgKd(i) ([8]; .32 mM sialoside): 3.2
A^i (absorbance) ([8]; .32 mM sialoside): 0.56
-lgKd(i) ([8]; .64 mM sialoside): 3.5
A^i (absorbance) ([8]; .64 mM sialoside): 0.35
-lgKd ± SD ([8]; mean over concentrations): 3.5 ± 0.2
-lgKd(i) ([9]; 1.28 mM sialoside): 3.7
A^i (absorbance) ([9]; 1.28 mM sialoside): 0.15
-lgKd(i) ([9]; 2.56 mM sialoside): 3.7
A^i (absorbance) ([9]; 2.56 mM sialoside): 0.08
-lgKd(i) ([9]; .16 mM sialoside): 3.3
A^i (absorbance) ([9]; .16 mM sialoside): 0.52
-lgKd(i) ([9]; .32 mM sialoside): 3.5
A^i (absorbance) ([9]; .32 mM sialoside): 0.40
-lgKd(i) ([9]; .64 mM sialoside): 3.7
A^i (absorbance) ([9]; .64 mM sialoside): 0.25
-lgKd ± SD ([9]; mean over concentrations): 3.6 ± 0.2
-lgKd(i) ([10]; 1.60 mM sialoside): 3.2
A^i (absorbance) ([10]; 1.60 mM sialoside): 0.25
-lgKd(i) ([10]; .05 mM sialoside): 3.2
A^i (absorbance) ([10]; .05 mM sialoside): 0.55
-lgKd(i) ([10]; .10 mM sialoside): 3.4
A^i (absorbance) ([10]; .10 mM sialoside): 0.51
-lgKd(i) ([10]; .20 mM sialoside): 3.4
A^i (absorbance) ([10]; .20 mM sialoside): 0.47
-lgKd(i) ([10]; .40 mM sialoside): 3.3
A^i (absorbance) ([10]; .40 mM sialoside): 0.42
-lgKd(i) ([10]; .80 mM sialoside): 3.1
A^i (absorbance) ([10]; .80 mM sialoside): 0.40
-lgKd ± SD ([10]; mean over concentrations): 3.3 ± 0.1
-lgKd(i) ([11]; 1.60 mM sialoside): 3.3
A^i (absorbance) ([11]; 1.60 mM sialoside): 0.35
-lgKd(i) ([11]; .05 mM sialoside): 3.3
A^i (absorbance) ([11]; .05 mM sialoside): 0.71
-lgKd(i) ([11]; .10 mM sialoside): 3.3
A^i (absorbance) ([11]; .10 mM sialoside): 0.69
-lgKd(i) ([11]; .20 mM sialoside): 3.5
A^i (absorbance) ([11]; .20 mM sialoside): 0.61
-lgKd(i) ([11]; .40 mM sialoside): 3.4
A^i (absorbance) ([11]; .40 mM sialoside): 0.56
-lgKd(i) ([11]; .80 mM sialoside): 3.4
A^i (absorbance) ([11]; .80 mM sialoside): 0.46
-lgKd ± SD ([11]; mean over concentrations): 3.4 ± 0.08
-lgKd(i) ([12]; 1.60 mM sialoside): 4.0
A^i (absorbance) ([12]; 1.60 mM sialoside): 0.35
-lgKd(i) ([12]; .05 mM sialoside): 3.8
A^i (absorbance) ([12]; .05 mM sialoside): 1.0
-lgKd(i) ([12]; .10 mM sialoside): 4.1
A^i (absorbance) ([12]; .10 mM sialoside): 0.9
-lgKd(i) ([12]; .20 mM sialoside): 4.0
A^i (absorbance) ([12]; .20 mM sialoside): 0.83
-lgKd(i) ([12]; .40 mM sialoside): 4.0
A^i (absorbance) ([12]; .40 mM sialoside): 0.70
-lgKd(i) ([12]; .80 mM sialoside): 3.9
A^i (absorbance) ([12]; .80 mM sialoside): 0.55
-lgKd ± SD ([12]; mean over concentrations): 4.0 ± 0.1
-lgKd(i) ([13]; 1.60 mM sialoside): 4.1
A^i (absorbance) ([13]; 1.60 mM sialoside): 0.20
-lgKd(i) ([13]; .05 mM sialoside): 4.0
A^i (absorbance) ([13]; .05 mM sialoside): 0.75
-lgKd(i) ([13]; .10 mM sialoside): 4.4
A^i (absorbance) ([13]; .10 mM sialoside): 0.59
-lgKd(i) ([13]; .20 mM sialoside): 4.1
A^i (absorbance) ([13]; .20 mM sialoside): 0.56
-lgKd(i) ([13]; .40 mM sialoside): 4.1
A^i (absorbance) ([13]; .40 mM sialoside): 0.43
-lgKd(i) ([13]; .80 mM sialoside): 4.1
A^i (absorbance) ([13]; .80 mM sialoside): 0.32
-lgKd ± SD ([13]; mean over concentrations): 4.1
Stability in the absence of enzyme [14]: at least 23 hours
Inhibition of virus strains (influenza viruses): inhibits some virus strains better than its analog
